Assay results taken from US7118747B2, “AT4 receptor ligands as angiogenic, anti-angiogenic, and anti-tumor agents” (Pacific Northwest Biotechnology Inc., priority 2003, dated 2006).

Legend:
C6 glioma cells = test: Net deposition of extracellular matrix protein, Coomassie blue stain; assay type: cell-based; details: 10^-12 M, 3 days
Description: (§1) Human dermal fibroblasts and C6 glioma cells (astrocyte tumor) were treated with 10^−12 M NORLEUAL for 3 days. Cells were stripped with 0.25 % Triton X-100 for 10 minutes and stained with either Coomassie blue (gliomas) or anti-fibronectin (fibroblasts). Stained dots remaining after treatment are nuclei. Although the mechanism responsible for the lose of ECM proteins has yet to be fully elucidated, a contributing factor could be AT4 receptor-dependent alterations in the expression of matrix metalloproteinases. Application of AT4 receptor ligands to rabbit cardiac fibroblasts initiated marked changes in the expression of various matrix metalloproteinases (MMPs) (FIG. 3). Conditioned media from cardiac fibroblasts treated with various AT4 receptor ligands for 12 hours was loaded and run on a 10% SDS-polyacrylamide gel containing the 1% gelatin, an MMP substrate. After renaturation and activation of MMPs, the gel was incubated at 37° C. for 24 hours to allow for the degradation of gelatin at sites within the gel where MMPs reside. These sites are seen as unstained lytic bands on a background of stained and undegraded gelatin. Lane one is control media from cells with no exposure to AT4 receptor ligands. Lanes 2-4 contained media from cells treated with Nle^1-Ang IV, a putative AT4 receptor agonist, at concentrations of 1 nM, 10 nM, and 100 nM respectively. […]

[1] = system: Human umbilical vein endothelial cells (HUVEC); test: HUVEC growth, MTT assay; assay type: cell-based
Description: These initial observations were extended to human endothelial cells (FIG. 1A) where application of the high affinity agonist, Nle^1-Ang IV (Sardinia et al., 1994; Wright et al., 1999), produces a dose-dependent increase in growth. Human umbilical vein endothelial cells (HUVEC) were grown in EGM (Clonetics) and 10% calf serum for four days in the absence (control) or presence of 10^−8 M, 10^−10 M, or 10^−12 M Nle^1-Ang IV. Cell proliferation was estimated by monitoring mitochondrial activity with the redox-sensitive substrate 3-[4,5-Dimethylthiazol-2-yl]-2,5-diphenyltetrazolium bromide (MTT) (Carmicheal et al., 1987).
(§2) Most relevant for anti-angiogenic cancer treatment is the ability of AT4 antagonists to inhibit endothelial cell growth in culture. Attenuated growth has been observed with both CVECs and with HUVECs (FIG. 1B). After four days of treatment with 10^−10 M Nle^1, Leu^3-Ψ(CH2—NH2)^3-4-Ang IV (NORLEUAL), a potent AT4 receptor antagonist (Kramar et al., 2001), growth of CVECs was reduced to 25% of control (Mean±SEM; n=8; p<.001). […] Cell proliferation was again estimated using the MTT assay.

Human dermal fibroblasts = test: Net deposition of extracellular matrix protein, anti-fibronectin stain; assay type: cell-based; details: 10^-12 M, 3 days
Description: as §1

[2] = system: +SA-WAZ-2T mouse breast cancer cells; test: Primary mammary tumor growth and vascularization with slow-release pellet; assay type: in vivo; details: mice
Description: To test this prediction mice were implanted with […]+SA-WAZ-2T mouse breast cancer cells (a highly aggressive and metastatic cell line) (Danielson et al., 1980) directly into the mammary gland in the presence or absence of a slow-release pellet containing the AT4 antagonist, NORLEUAL at various concentrations (FIG. 7; FIG. 14[color version]). Mouse mammary glands were injected with 5×10^5 cells. […] Tumors were removed and weighed at various time points. Data shown represents one of three experiments that yielded identical results. […] Arrows indicate large blood vessels in the control tumor. […] The highest dose examined inhibited growth more than 97%. Equally dramatic as the reduced size of the tumors was their lack of vascularization. […] Tumors were harvested after 5 weeks of drug application and stained for Factor VIII. […] The quantitative data shown in FIG. 8B indicates the number of visible blood vessels in an average high power field. Data are mean+/−SEM, n=6.

Rat aortic rings = test: Ex vivo rat aortic ring angiogenesis assay; details: 3 days in basal medium with varying concentrations; p<0.02 for 10^-6 M
Description: (§3) This prediction has been borne out in studies examining the anti-angiogenic activity of the AT4 receptor antagonist, NORLEUAL, using an ex vivo aortic ring model (FIG. 5) and an in vivo disc angiogenesis assay system in rats (FIG. 6). The data shown in FIG. 5 illustrate the dramatic ability of an AT4 receptor antagonist to inhibit neovascular growth. Rat aortic rings were incubated for 24 hours in a growth factor rich medium (EGM-2) followed by 3 days of incubation in a basal medium (control) or basal media with varying concentrations of NORLEUAL. The data shown in FIG. 5A compare an untreated control ring and a ring treated with 10^−6 M NORLEUAL. […] Disks (1 cm diameter) composed of surgical sponge sandwiched between impermeable membranes were implanted subcutaneously in the backs of rats. In the center of the disks was a pellet containing the test material. The disks were removed 10 days after implantation, paraffin sectioned, stained with Coomassie blue, and analyzed by quantitative image analysis methods to determine the vascularized area. […] Data from discs containing no drug (control), an AT4 receptor agonist (Cpnd 1), or an AT4 receptor antagonist (Cpnds 2-4). Cmpd 2 is NORLEUAL. Each disc contained 10 micrograms of drug. Data is presented as the percent of the total disc area that is vascularized (Mean±SEM; n=8).

[3] = system: MDA-MB-231 human breast cancer cells; test: MDA-MB-231 growth, MTT assay; assay type: cell-based; details: 10^-12 M, four days in culture
Description: Because of the marked effectiveness of AT4 receptor antagonists to inhibit the growth and metastasis of breast cancer in vivo, and the generally disappointing activity of anti-angiogenic molecules seen in clinical trials (Kerbel and Folkman, 2002), we decided to ascertain whether these drugs might have a direct effect on tumor cells as well as inhibiting angiogenesis. The growth of MDA-MB-23 1 cells, an aggressive estrogen-independent human cell line was inhibited by all concentrations that were examined (FIG. 10). Growth was assessed using the mitochondrial activity dye MTT after four days in culture. Growth was reduced to less than 25% of control by a concentration of NORLEUAL of 10^−12 M (Mean+/−SEM; n=6). […] The unusual reversed dose-response curve seen with the MDA-MB-231 cells may represent differential effects on multiple receptor subtypes with varied ligand affinities. […] The ability of AT4 receptor antagonists to inhibit both the angiogenic process as well as the proliferation of human cancer cells makes them unique among anti-cancer agents and provides a plausible explanation for their dramatic ability to inhibit tumor growth and metastasis.

HUVECs = test: Net deposition of extracellular matrix protein, Coomassie blue stain; assay type: cell-based, human; details: 10^-12 M, 3 days
Description: HUVECs and the mouse breast cancer cell line, +SA-WAZ-2T was exposed to the AT4 receptor antagonist NORLEUAL at 10^−12 M for 3 days. Cells were then stripped with 0.25% Triton X-100 and stained with Coomassie blue to visualize total ECM protein. Without an ECM platform endothelial cells fail to migrate and are unable to stabilize new blood vessels.

[4] = system: murine breast cancer cells; test: Lung metastasis after tail vein injection of breast cancer cells; assay type: in vivo, mice; details: Elvax pellets with 0.3 mg bilaterally
Description: In addition to inhibiting primary tumor growth, AT4 receptor antagonists are also effective at preventing the growth of lung metastases (as assessed by total lung weight and the presence of metastatic tumor nodules) in mice that have had breast cancer cells injected via the tail vein (FIG. 9). In these experiments the drug was applied using Elvax slow-release pellets that were implanted into the gluteus maximus muscle coincident with the injection of tumor cells into the tail vein. Mice were injected with 5×10^5 murine breast cancer cells and bilaterally implanted with Elvax pellets containing 0.3 mg of NORLEUAL. Lungs were harvested 7 weeks after tumor cell injection and weighed. […] In order to compare just the added lung weight due to tumor infiltration, tumor burden was calculated by subtracting the mean lung weight of wild type untreated controls from the weight of lungs from experimental groups. The mean lung weight of the untreated tumor controls was normalized to 100. Typically, the lung weights of cancer injected, non-treated mice were 50% greater than non-injected controls and treated mice. Spleen weight, another indication of tumor burden, was also normal in treated mice.

[5] = system: bovine coronary venular endothelial cells (CVEC); test: CVEC growth, MTT assay; assay type: cell-based; details: 10^-10 M, four days of treatment
Description: as §2

[6] = system: angiogenesis into subcutaneously implanted disc; test: In vivo disc angiogenesis assay; details: rat, 10 micrograms of drug per disc, 10 days after implantation
Description: as §3

[7] = system: bovine coronary venular endothelial cells (CVEC); details: cultured CVEC (Hall et al., 1995); cited from earlier work

For “Nle^1, Leu^3-Ψ(CH2—NH2)^3-4-Ang IV [NORLEUAL]”, the “deposited ECM” value (C6 glioma cells) was “near total loss of deposited ECM”, the “growth of HUVECs, largest decrease” value ([1]; 10^-6 M) was 39 % control and the “deposited ECM” value (Human dermal fibroblasts) was “near total loss of deposited ECM”. For the same substance, the “inhibition of primary tumor growth” value ([2]; highest dose examined, Elvax pellet in mammary gland) was “more than 97%”, the “tumor vascularization, Factor VIII stained sections” value ([2]; tumors harvested after 5 weeks of drug application) was “nearly avascular” and the “vessel growth in aortic rings” value (Rat aortic rings) was “inhibition of vessel growth”. For the same substance, the “growth of MDA-MB-231 cells” value [3] was “less than 25 % of control”, the “density of endothelial-associated ECM” value (HUVECs) was “dramatic reduction in the density of the endothelial-associated ECM” and the lung metastases ([4]; mice, lungs harvested at 7 weeks) was “no gross or microscopic indication of metastases”. The “spleen weight, indication of tumor burden” value ([4]; treated mice) was “normal” and the “growth of CVECs” value [5] was 25 % of control.

For Nle^1-Ang IV, the “angiogenesis, percent of total disc area vascularized” value [6] is listed as “trend toward enhancing angiogenesis”, the “rate of 3H-thymidine incorporation” value [7] is listed as “augment the rate of ^3H-thymidine incorporation” and the “maximum observed increase in endothelial cell proliferation” value ([1]; HUVEC, four days, 10^-8, 10^-10 or 10^-12 M) is listed as 330 % of control levels.
